Measurements published in publication PMC12851022, “Targeting the Spliceosomal Protein USP39 Through Allosteric Ligands and PROTAC‐Induced Degradation” (Angewandte Chemie (International Ed. in English), 2025).

Assays:
USP39_T2 = target: T1, USP39_T2 (Homo sapiens, UniProt Q53GS9); experiment: Isothermal titration calorimetry (ITC); type: binding
T1 construct: USP39_T2 (ZNF domain only); made in house
T1 sequence (Q53GS9 103-200 limits assumed): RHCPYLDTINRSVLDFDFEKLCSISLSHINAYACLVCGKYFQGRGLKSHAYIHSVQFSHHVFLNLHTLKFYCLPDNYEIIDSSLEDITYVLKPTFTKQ

USP39-OFP = target: T2, USP39-OFP (Homo sapiens, UniProt P40337+Q53GS9); experiment: Fluorescence degradation assay in HEK293T cells co-expressing USP39-OFP and VHL_WT-EGFP; type: cell-based; conditions: VHL WT (VHL_WT-EGFP co-expressed)
T2 construct: expressed in transfected cells
Method: Figure 4 Effective and selective degradation of USP39 in cells by USP39‐PROTACs. a) Optimization of cellular degradation assay in HeLa cells transiently overexpressing USP39‑OFP (HeLa‐USP39‐OFP). […] GAPDH was used as a loading control. g) Proteasome dependence of USP39 degradation. HeLa‐WT cells were co‐treated with MG132 (0.25 µM) or DMSO control and USP39_PROTAC_V1 for 24 h ST. h) Representative immunofluorescence images of HeLa‐USP39_OFP cells treated with DMSO (NT), USP39_PROTAC_V1 (10 nM, 24 h), or USP39_PROTAC_V1 + MLN4924 (1 µM), stained for USP39 (red) and nuclei (blue). i) Quantification of USP39 degradation by fluorescence microscopy, showing DC50 values of 13 nM without MLN4924 (orange) and 204 nM with MLN4924 (blue) (MLN4924 = 5 uM). j) VHL‐dependence of PROTAC‐induced degradation. Schematic of PROTAC recruitment to VHL via hydroxyl‐proline interactions (His115, Ser111). Western blot comparing USP39 levels in VHL WT and VHL KO HeLa cells treated with USP39_PROTAC_V1. k) Fluorescence assay in HEK293T cells co‐expressing USP39‑OFP and either VHL_WT‑EGFP or VHL_m (Δ91–121). […] Comparison of untreated (NT) and USP39_PROTAC_V1–treated (10 nM, 24 h) samples. Percent spliced/unspliced (S/U) ratios are shown, reflecting USP39‐deficiency–associated splicing defects. Data represent at least four independent biological replicates. […]

USP39_FL = target: T3, USP39_FL (Homo sapiens, UniProt Q53GS9); experiment: Thermal shift assay (TSA) with full-length USP39; type: binding
T3 construct: made in house
T3 sequence (Q53GS9 1-565): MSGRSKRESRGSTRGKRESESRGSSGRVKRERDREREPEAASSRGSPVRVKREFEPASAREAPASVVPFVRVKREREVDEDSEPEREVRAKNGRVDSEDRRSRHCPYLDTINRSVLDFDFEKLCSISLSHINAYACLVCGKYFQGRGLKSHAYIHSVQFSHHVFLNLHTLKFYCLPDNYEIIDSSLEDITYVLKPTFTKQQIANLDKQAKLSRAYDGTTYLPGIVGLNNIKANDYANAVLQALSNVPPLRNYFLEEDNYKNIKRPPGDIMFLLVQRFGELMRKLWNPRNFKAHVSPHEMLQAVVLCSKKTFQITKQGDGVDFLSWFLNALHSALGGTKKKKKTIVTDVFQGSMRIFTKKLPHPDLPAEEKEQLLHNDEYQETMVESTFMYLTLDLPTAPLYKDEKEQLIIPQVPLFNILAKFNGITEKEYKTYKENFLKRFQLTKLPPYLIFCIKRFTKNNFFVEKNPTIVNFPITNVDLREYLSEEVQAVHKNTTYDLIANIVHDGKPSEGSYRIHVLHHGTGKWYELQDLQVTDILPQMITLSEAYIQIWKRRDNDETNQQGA
From the text: To identify potential USP39 binders, we purified full‐length USP39 protein (USP39_FL, Figure SI1B) and conducted chemical screening using two complementary strategies. First, an in‐house bioactive collection of approximately 200 small molecules, previously assembled from our studies on cellular reprogramming, was screened using thermal shift assay (TSA, Figure 1a).^[ [2], [23], [24], [25], [26] ^] […] In parallel, a DNA‐encoded library (DEL) screening comprising roughly 600 million unique small molecules was performed. Each DEL compound carries a covalently attached DNA barcode that enables identification after target binding. For this screening, purified USP39_FL protein was immobilized on magnetic beads and incubated with the library; unbound molecules were washed away, and bound DNA‐tagged compounds were eluted. […]
Figure 1 Chemical screening identified thiazole‐containing compounds as USP39 binders. a) AlphaFold3‑predicted structure of full‐length USP39 (USP39_FL) showing three domains: an N‑terminal RS‑like domain (grey), a central zinc‑finger (ZNF) domain (cyan), and a C‑terminal USP domain (gold). […] The ΔT values are therefore given under an empty label, with the protein construct written in front. / Panels b and d: the print is small, so the digits in 55.0, 57.5, -2.5, -2.0 and -1.5 are best readings. […]

T2 sequence (P40337 whole entry, one chain of several): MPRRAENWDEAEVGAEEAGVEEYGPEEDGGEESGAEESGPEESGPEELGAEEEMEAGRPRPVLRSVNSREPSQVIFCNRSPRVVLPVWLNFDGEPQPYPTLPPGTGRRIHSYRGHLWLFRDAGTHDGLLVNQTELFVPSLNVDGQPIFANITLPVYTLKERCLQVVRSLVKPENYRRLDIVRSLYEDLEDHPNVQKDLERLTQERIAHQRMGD
T2 sequence (Q15370 whole entry partner, one chain of several): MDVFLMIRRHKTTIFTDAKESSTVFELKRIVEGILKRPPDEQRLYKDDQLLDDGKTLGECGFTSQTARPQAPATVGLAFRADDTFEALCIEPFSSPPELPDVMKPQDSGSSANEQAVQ
T2 sequence (Q15369 whole entry partner, one chain of several): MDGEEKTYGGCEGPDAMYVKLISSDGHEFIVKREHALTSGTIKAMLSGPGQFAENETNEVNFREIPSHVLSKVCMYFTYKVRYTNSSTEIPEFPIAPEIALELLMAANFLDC

**Q.** What does the source list for Cc1ncsc1-c1ccc(CNC(=O)C2CC(O)CN2C(=O)C(NC(=O)CCOCCOCCOCCNC(=O)c2csc(Nc3ccc(Cl)cc3)n2)C(C)(C)C)cc1 (stereo not drawn) [USP39_PROTAC_V1]?
**A.** Kd (USP39_T2): 136 nM; DC50 (USP39-OFP): 1 nM; ∆T (T max_Compound − T max_USP39), USP39_FL (USP39_FL): comparable to that induced by USP39_B1
